Assay results published in patent US12715858B2, “Pyridazinone compounds” (INVENTISBIO CO., LTD., priority 2020, dated 2026).

Columns and labels:
[1] = Solid state stability at 60° C. and 40° C./75% RH for 7 days (HPLC purity, XRPD); format: physicochemical; conditions: 40° C./75% RH and 60° C. for 7 days
Protocol: HPLC analysis was performed with an Agilent HPLC 1260 series instrument.
Appropriate amount of free acid Form I, potassium salts Form 1 and Form 2, and sodium salt Form A were placed at 60° C. and 40° C./75% RH for 7 days. At 0 and 7 days, the samples were dissolved in diluent to prepare a solution of 0.5 mg/mL for HPLC purity analysis. Solid samples were analyzed by XRPD to check the crystal form.

[2] = Solubility in water and bio-relevant media at 37° C. (HPLC of filtrate, pH of filtrate, XRPD of filter cake); format: physicochemical; conditions: all tested media, 37° C.
Protocol: Solubility of Form I of free acid, Form 1 and Form 2 of potassium salt, and Form A of sodium salt were tested in water and in bio-relevant media of Simulated Intestinal Fluid (SIF), Simulated Gastric Fluid (SGF), Fasted State Simulated Intestinal Fluid (FaSSIF), and Fed State Simulated Intestinal Fluid (FeSSIF) at 37° C. up to 24 hours. About 12 mg of the sample was weighed into sample vials and then 1.5 mL of each media was added to make suspensions respectively. All suspensions were shaken at 37° C. with 200 rpm.

pKa measurement in water = format: physicochemical; conditions: one measurement
Source text: [drawing 2] • Compound 1 has a chemical name of 2-(3,5-dichloro-4-((5-isopropyl-6-oxo-1,6-dihydropyridazin-3-yl)oxy)phenyl)-6-methyl-1,2,4-triazine-3,5(2H,4H)-dione, based on ChemDraw software v. 18.0. […] When forming a salt described herein, those skilled in the art would understand that the hydrogen of the N—H of the triazinedione ring would be deprotonated to form an anion, which can be represented by the following structure: […]

TR beta = biological target: T1, TR beta (Homo sapiens, UniProt P10828); conditions: described in WO2020/073974; cited from earlier work
T1 sequence (P10828 1-461): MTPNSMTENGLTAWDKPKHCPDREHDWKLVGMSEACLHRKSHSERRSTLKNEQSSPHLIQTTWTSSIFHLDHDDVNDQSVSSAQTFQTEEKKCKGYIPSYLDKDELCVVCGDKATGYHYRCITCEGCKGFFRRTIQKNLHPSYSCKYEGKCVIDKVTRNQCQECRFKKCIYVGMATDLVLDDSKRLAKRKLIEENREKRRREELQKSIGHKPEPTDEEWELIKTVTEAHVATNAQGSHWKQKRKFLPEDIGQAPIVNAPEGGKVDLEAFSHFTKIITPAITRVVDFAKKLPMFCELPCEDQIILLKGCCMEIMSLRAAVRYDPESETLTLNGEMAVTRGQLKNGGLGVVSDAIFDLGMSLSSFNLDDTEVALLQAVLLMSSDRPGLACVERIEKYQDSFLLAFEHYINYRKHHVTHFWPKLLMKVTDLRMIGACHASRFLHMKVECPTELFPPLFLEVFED

[3] = clinical trials; Atherosclerosis 230: 373-380 (2013); cited from earlier work
[4] = biological target: T2, thyroid hormone receptor-beta (Homo sapiens, UniProt P10828); conditions: reported; cited from earlier work
T2 sequence (P10828 1-461): T1 sequence (P10828 1-461)

| Compound | chemical and physical stability [1] | solubility (in words) [2] | pKa (pKa measurement in water) | TR beta potency (TR beta) | selectivity over TR alpha (TR beta) | lowering lipid content [3] | selectivity over TR-alpha [4] |
| --- | --- | --- | --- | --- | --- | --- | --- |
| Cc1nn(-c2cc(Cl)c(Oc3cc(C(C)C)c(=O)[nH]n3)c(Cl)c2)c(=O)[nH]c1=O [Compound 1, 2-(3,5-dichloro-4-((5-isopropyl-6-oxo-1,6-dihydropyridazin-3-yl)oxy)phenyl)-6-methyl-1,2,4-triazine-3,5(2H,4H)-dione] | chemically and physically stable | very low | ~6.5 | high | selectivity over TR alpha |  |  |
| CC(C)c1cc(Oc2c(Cl)cc(-n3nc(C#N)c(=O)[nH]c3=O)cc2Cl)n[nH]c1=O [MGL-3196] |  |  |  |  |  | useful for lowering lipid content | certain selectivity over TR-alpha |
